{"source": "ChEMBL document CHEMBL1150657", "about": "“Assessment of the antiprotozoal activity of Galphimia glauca and the isolation of new nor-secofriedelanes and nor-friedelanes” (J Nat Prod, 2002)", "key": {"KB": {"tested_on": "KB", "assay": "Cytotoxicity against human KB cells", "format": "cell-based"}, "[1]": {"tested_on": "Trypanosoma brucei brucei", "assay": "Antitrypanosomal activity against Trypanosoma brucei brucei S427 blood stream trypomastigotes", "format": "functional, organism-based"}, "Leishmania donovani": {"tested_on": "Leishmania donovani", "assay": "Antileishmanial activity against Leishmania donovani (MHOM/ET/67/L82) promastigotes", "format": "functional, organism-based"}, "Plasmodium falciparum": {"tested_on": "Plasmodium falciparum", "assay": "Antiprotozoal activity against Plasmodium falciparum K1", "format": "functional, organism-based"}}, "data": [{"smiles": "CCN(CC)CCCC(C)Nc1ccnc2cc(Cl)ccc12", "note": "(stereo not drawn) [CHLOROQUINE]", "values": [{"measurement": "IC50", "setting": "KB", "value": 51.4, "unit": "µg/mL"}]}, {"smiles": "N=C(N)c1ccc(OCCCCCOc2ccc(C(=N)N)cc2)cc1", "note": "[PENTAMIDINE]", "values": [{"measurement": "IC50", "setting": "[1]", "value": 0.0006, "unit": "µg/mL"}, {"measurement": "IC50", "setting": "Leishmania donovani", "value": 0.24, "unit": "µg/mL"}, {"measurement": "IC50", "setting": "KB", "value": 0.11, "unit": "µg/mL"}]}, {"smiles": "COc1cc([C@@H]2c3cc4c(cc3[C@H](O)[C@H]3COC(=O)[C@H]23)OCO4)cc(OC)c1OC", "note": "[PODOFILOX]", "values": [{"measurement": "IC50", "setting": "KB", "value": 0.00621, "unit": "µg/mL"}]}, {"smiles": "CC[C@H](/C=C/[C@@H](C)[C@H]1CC[C@H]2[C@@H]3CC=C4C[C@@H](O)CC[C@]4(C)[C@H]3CC[C@]12C)C(C)C", "note": "[STIGMASTEROL]", "values": [{"measurement": "IC50", "setting": "[1]", "value": "> 100", "unit": "µM"}, {"measurement": "IC50", "setting": "Leishmania donovani", "value": "> 100", "unit": "µM"}, {"measurement": "IC50", "setting": "KB", "value": "> 100", "unit": "µM"}, {"measurement": "IC50", "setting": "Plasmodium falciparum", "value": "> 100", "unit": "µM"}]}, {"smiles": "O=c1c(O)c(-c2ccc(O)c(O)c2)oc2cc(O)cc(O)c12", "note": "[QUERCETIN]", "values": [{"measurement": "IC50", "setting": "[1]", "value": 4.5, "unit": "µg/mL"}, {"measurement": "IC50", "setting": "Leishmania donovani", "value": 29.5, "unit": "µg/mL"}, {"measurement": "IC50", "setting": "KB", "value": 136, "unit": "µg/mL"}, {"measurement": "IC50", "setting": "Plasmodium falciparum", "value": 6.5, "unit": "µg/mL"}]}, {"smiles": "CC[C@H](/C=C/[C@@H](C)[C@H]1CC[C@H]2[C@@H]3CC=C4C[C@@H](O[C@@H]5O[C@H](CO)[C@@H](O)[C@H](O)[C@H]5O)CC[C@]4(C)[C@H]3CC[C@]12C)C(C)C", "note": "[STIGMASTEROL GLUCOSIDE]", "values": [{"measurement": "IC50", "setting": "[1]", "value": "> 100", "unit": "µM"}, {"measurement": "IC50", "setting": "Leishmania donovani", "value": "> 100", "unit": "µM"}, {"measurement": "IC50", "setting": "KB", "value": "> 100", "unit": "µM"}, {"measurement": "IC50", "setting": "Plasmodium falciparum", "value": "> 100", "unit": "µM"}]}, {"smiles": "C=C1C[C@H](C(=O)OC)[C@]2(C)CC[C@]3(C)[C@H]4[C@H](O)[C@@H](O)[C@]5(COC(C)=O)[C@@H](C)[C@@H](OC(C)=O)CC[C@H]5[C@]4(C)CC[C@@]3(O)[C@]2(O)C1", "note": "[GALPHIMIDIN]", "values": [{"measurement": "IC50", "setting": "[1]", "value": "> 100", "unit": "µM"}, {"measurement": "IC50", "setting": "Leishmania donovani", "value": "> 100", "unit": "µM"}, {"measurement": "IC50", "setting": "KB", "value": "> 100", "unit": "µM"}, {"measurement": "IC50", "setting": "Plasmodium falciparum", "value": "> 100", "unit": "µM"}]}, {"smiles": "C=C1C[C@@H](OC(C)=O)[C@]2(C)CC[C@]3(C)[C@H]4[C@H](OC(C)=O)C[C@]5(COC(C)=O)[C@@H](C)OC(=O)[C@H]6O[C@H]6[C@H]5[C@]4(C)C[C@H](OC(C)=O)[C@@]3(C(=O)OC)[C@]2(O)C1", "note": "[GALPHIN C]", "values": [{"measurement": "IC50", "setting": "[1]", "value": "> 100", "unit": "µM"}, {"measurement": "IC50", "setting": "Leishmania donovani", "value": "> 100", "unit": "µM"}, {"measurement": "IC50", "setting": "KB", "value": "> 100", "unit": "µM"}, {"measurement": "IC50", "setting": "Plasmodium falciparum", "value": "> 100", "unit": "µM"}]}, {"smiles": "C=C1CC[C@]2(C)CC[C@]3(C)[C@H]4[C@H](OC(C)=O)C[C@]5(COC(C)=O)[C@@H](C)OC(=O)[C@H]6O[C@H]6[C@H]5[C@]4(C)CC[C@@]3(C(=O)OC)[C@]2(O)C1", "note": "[GALPHIN A]", "values": [{"measurement": "IC50", "setting": "[1]", "value": "> 100", "unit": "µM"}, {"measurement": "IC50", "setting": "Leishmania donovani", "value": "> 100", "unit": "µM"}, {"measurement": "IC50", "setting": "KB", "value": "> 100", "unit": "µM"}, {"measurement": "IC50", "setting": "Plasmodium falciparum", "value": "> 100", "unit": "µM"}]}, {"smiles": "C=C1C[C@@H](OC(C)=O)[C@]2(C)CC[C@]3(C)[C@H]4[C@H](OC(C)=O)C[C@]5(COC(C)=O)[C@@H](C)OC(=O)[C@H]6O[C@H]6[C@H]5[C@]4(C)CC[C@@]3(C(=O)OC)[C@]2(O)C1", "note": "[GALPHIN B]", "values": [{"measurement": "IC50", "setting": "[1]", "value": "> 100", "unit": "µM"}, {"measurement": "IC50", "setting": "Leishmania donovani", "value": "> 100", "unit": "µM"}, {"measurement": "IC50", "setting": "KB", "value": "> 100", "unit": "µM"}, {"measurement": "IC50", "setting": "Plasmodium falciparum", "value": "> 100", "unit": "µM"}]}]}
